Measurements: US20250288704A1, “CXCR4-LIGANDS FOR DIAGNOSTIC AND THERAPEUTIC USE AND PRECURSORS THEREOF” (priority 2021, published 2025)
Non-standard residues stand in square brackets, D forms with d. Residues, ends and D or L forms follow the SMILES beside them. Groups on a side chain read outwards from the residue. *: point of attachment. DOTA = O=C(O)CN1CCN(CC(=O)O)CCN(CC(=O)*)CCN(CC(=O)O)CC1; dTyr(3-I) = N[C@H](Cc1ccc(O)c(I)c1)C(=O)O; 2Nal = N[C@@H](Cc1ccc2ccccc2c1)C(=O)O; dNMeOrn = CN[C@H](CCCN)C(=O)O; 4Amb = NCc1ccc(C(=O)O)cc1; 4Abz = Nc1ccc(C(=O)O)cc1; dDap = NC[C@@H](N)C(=O)O

What was measured:
[1] = Octanol/PBS partition coefficient (logD7.4); type: physicochemical; settings: n-octanol/PBS pH 7.4, radiolabeled compound
Protocol: The tubes were vortexed at maximum speed for 3 min to ensure equilibrium before centrifugation at 15.000×g for 5 min on a Biofuge 15 from Heraeus Holding GmbH (Osterode, Germany). An aliquot of 100 μL of each fraction was measured in the γ-counter and the log D7.4 calculated as follows: […]

[2] = Biodistribution in Jurkat tumor-bearing CB-17 SCID mice; type: in vivo; design: tissue to tissue ratio at 1 h / tissue to tissue ratio / tissue to tissue ratio at 48 h: reference not given here; settings: CB-17 SCID, mouse, in vivo, iv, total radioactivity
Method in brief: (§1)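 Radioligand (125I, 177Lu, 99mTc, 18F or 68Ga label; roughly 0.5-20 MBq, 0.02-0.20 nmol) was injected intravenously via tail vein. Hosts were CB17-SCID mice with subcutaneous Jurkat tumors of 5-8 mm, 4-10 weeks post-inoculation. Dissected organs were weighed and counted in a γ-counter.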

CXCR4 = CXCR4 (Homo sapiens, UniProt P61073); assay: Determination of IC50: competition with 125I-Fc-131 on CXCR4-positive Jurkat cells; type: binding; design: CXCR4-positive Jurkat T lymphocyte cells were grown in Gibco's RPMI 1640 GlutaMAX medium; endogenous in cells; host or cells: Jurkat T lymphocyte cells (whole cells in suspension, 400.000 per tube); settings: unlabeled or cold (natGa/natLu) compound vs 125I-Fc-131, Jurkat cells; read-out: IC50;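 also: test compound at 10^−5 to 10^−11 M competed for 2 h at 8 °C with the radioligand on 400,000 cells per well, bound versus free activity measured by γ-counting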
Protocol: For in vitro experiments, cells were counted in a hemocytometer using trypan blue as contrast agent. The cell suspension was centrifuged, and the pellet resuspended in HBSS (+1 wt % BSA) to a concentration of 2 mio cells/mL. […] 200 μL of cell suspension (400.000 cells per well) were added to obtain a final peptide concentration range of 10^−5-10^−11 M. The tubes were cooled for 2 h at 8° C. to prevent internalization. The experiment was stopped by removal of the supernatant. 200 μL HBSS were added onto the cells, the suspension centrifuged, and the supernatant pooled with the respective first fractions. This step was repeated once more before the tubes containing the supernatants and the ones containing the cell pellets were subjected to activity measurement in the γ-counter.

[3] = test system: CXCR4-expressing Chem_1 cells; assay: Determination of internalization, dual tracer with 125I-Fc-131; type: cell-based; settings: for Cell-bound [%] / Internalized [%]: of total cellular activity
Method in brief: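 Receptor blockade used AMD3100 (1 mM stock) versus medium-treated wells, triplicate per time point, in Chem_1 cells cultured at 37 °C in DMEM-F12/10% FBS. Activity of supernatant, surface-bound and internalized (1 M NaOH) fractions measured by γ-counter, corrected for non-specific uptake and normalised to standard ligand.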

[4] = test system: Jurkat tumor-bearing CB-17 SCID mice; assay: Biodistribution in Jurkat tumor-bearing CB-17 SCID mice; type: in vivo; design: tissue to tissue ratio at 1 h / tissue to tissue ratio / tissue to tissue ratio at 48 h: reference not given here; settings: mouse, in vivo
Method in brief: as §1

Sequence of CXCR4 (P61073 whole entry): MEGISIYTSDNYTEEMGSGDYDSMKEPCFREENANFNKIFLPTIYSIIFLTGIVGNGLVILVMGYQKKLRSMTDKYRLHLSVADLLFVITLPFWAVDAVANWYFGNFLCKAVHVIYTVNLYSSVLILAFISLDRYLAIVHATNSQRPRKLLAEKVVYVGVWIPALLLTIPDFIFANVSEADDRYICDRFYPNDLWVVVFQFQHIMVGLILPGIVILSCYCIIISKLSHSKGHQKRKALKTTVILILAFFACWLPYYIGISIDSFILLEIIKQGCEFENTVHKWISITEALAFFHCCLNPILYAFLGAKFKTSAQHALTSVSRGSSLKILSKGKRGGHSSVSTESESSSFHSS

C[C@@H](NC(=O)[C@@H](CCCNC(=N)N)NC(=O)[C@@H](CN)NC(=O)CN1CCN(CC(=O)O)CCN(CC(=O)O)CCN(CC(=O)O)CC1)C(=O)NCc1ccc(C(=O)NCCC[C@@H]2C(=O)N[C@@H](CCCNC(=N)N)C(=O)N[C@@H](Cc3ccc4ccccc4c3)C(=O)NCC(=O)N[C@H](Cc3ccc(O)c(I)c3)C(=O)N2C)cc1 [CXCR4-DOTA-2 [Lu]] (cyclo([dTyr(3-I)][dNMeOrn]([4Amb-dA-dR-dDap-DOTA])R[2Nal]G))
logD7.4 [1]: −2.20 ± 0.06 (8) | tissue uptake at 1 h ([2]; female, % iD/g Blood): 1.67 %ID/g | tissue uptake at 1 h ([2]; female, % iD/g Bone): 0.9 %ID/g | tissue uptake at 1 h ([2]; female, % iD/g Heart): 1.04 %ID/g | tissue uptake at 1 h ([2]; female, % iD/g Intestine): 0.9 %ID/g | tissue uptake at 1 h ([2]; female, % iD/g Kidney): 15.7 %ID/g | tissue uptake at 1 h ([2]; female, % iD/g Liver): 17.7 %ID/g | tissue uptake at 1 h ([2]; female, % iD/g Lung): 2.94 %ID/g | tissue uptake at 1 h ([2]; female, % iD/g Muscle): 0.3 %ID/g | tissue uptake at 1 h ([2]; female, % iD/g Pancreas): 0.53 %ID/g | tissue uptake at 1 h ([2]; female, % iD/g Spleen): 3.62 %ID/g | tissue uptake at 1 h ([2]; female, % iD/g Stomach): 1.41 %ID/g | tissue uptake at 1 h ([2]; female, % iD/g Tumor): 5.27 %ID/g | IC50 (CXCR4): 6.47 ± 1.75 nM | Internalized in relation to 125I-Fc-131 [%] ([3]; 15 min): 247 ± 26.2% | Cell-bound [%] ([3]; 15 min): 8.31 ± 1.20% | Internalized [%] ([3]; 15 min): 11.2 ± 1.93% | Internalized in relation to 125I-Fc-131 [%] ([3]; 30 min): 347 ± 36.1% | Cell-bound [%] ([3]; 30 min): 13.5 ± 1.38% | Internalized [%] ([3]; 30 min): 17.8 ± 2.02% | Internalized in relation to 125I-Fc-131 [%] ([3]; 60 min): 368 ± 36.9% | Cell-bound [%] ([3]; 60 min): 16.4 ± 1.31% | Internalized [%] ([3]; 60 min): 21.8 ± 1.10% | Internalized in relation to 125I-Fc-131 [%] ([3]; 120 min): 456 ± 76.3% | Internalization [% Fc-131] 2 h ([3]; 2 h, 177Lu-labeled): 456 % Fc-131 | Cell-bound [%] ([3]; 120 min): 22.2 ± 2.68% | Internalized [%] ([3]; 120 min): 27.3 ± 3.62%

C[C@@H](NC(=O)[C@@H](CCCNC(=N)N)NC(=O)[C@@H](CN)NC(=O)CN1CCN(CC(=O)O)CCN(CC(=O)O)CCN(CC(=O)O)CC1)C(=O)Nc1ccc(C(=O)NCCC[C@@H]2C(=O)N[C@@H](CCCNC(=N)N)C(=O)N[C@@H](Cc3ccc4ccccc4c3)C(=O)NCC(=O)N[C@H](Cc3ccc(O)cc3)C(=O)N2C)cc1 [CXCR4-DOTA-3 [Lu]] (cyclo([dY][dNMeOrn]([4Abz-dA-dR-dDap-DOTA])R[2Nal]G))
tissue to tissue ratio [2]: 229 | tissue to tissue ratio at 1 h [2]: 9.25 | tissue to tissue ratio at 48 h [2]: 1360 | tissue uptake at 1 h ([2]; Tumor activity 1 h p.i.): 8.42 %ID/g | tissue uptake at 6 h ([2]; Tumor activity 6 h p.i.): 6.88 %ID/g | tissue uptake at 48 h ([2]; Tumor activity 48 h p.i.): 5.44 %ID/g | tissue uptake at 1 h ([2]; female, % iD/g Blood): 0.91 %ID/g | tissue uptake at 6 h ([2]; female, % iD/g Blood): 0.03 %ID/g | tissue uptake at 1 h ([2]; female, % iD/g Bone): 0.55 %ID/g | tissue uptake at 6 h ([2]; female, % iD/g Bone): 0.28 %ID/g | tissue uptake at 48 h ([2]; female, % iD/g Bone): 0.18 %ID/g | tissue uptake at 1 h ([2]; female, % iD/g Heart): 0.53 %ID/g | tissue uptake at 6 h ([2]; female, % iD/g Heart): 0.09 %ID/g | tissue uptake at 48 h ([2]; female, % iD/g Heart): 0.06 %ID/g | tissue uptake at 1 h ([2]; female, % iD/g Intestine): 0.44 %ID/g | tissue uptake at 6 h ([2]; female, % iD/g Intestine): 0.44 %ID/g | tissue uptake at 48 h ([2]; female, % iD/g Intestine): 0.11 %ID/g | tissue uptake at 1 h ([2]; female, % iD/g Kidney): 14.1 %ID/g | tissue uptake at 6 h ([2]; female, % iD/g Kidney): 13.4 %ID/g | tissue uptake at 48 h ([2]; female, % iD/g Kidney): 4.47 %ID/g | tissue uptake at 1 h ([2]; female, % iD/g Liver): 8.48 %ID/g | tissue uptake at 6 h ([2]; female, % iD/g Liver): 9.43 %ID/g | tissue uptake at 48 h ([2]; female, % iD/g Liver): 8.84 %ID/g | tissue uptake at 1 h ([2]; female, % iD/g Lung): 1.67 %ID/g | tissue uptake at 6 h ([2]; female, % iD/g Lung): 0.25 %ID/g | tissue uptake at 48 h ([2]; female, % iD/g Lung): 0.14 %ID/g | tissue uptake at 1 h ([2]; female, % iD/g Muscle): 0.18 %ID/g | tissue uptake at 6 h ([2]; female, % iD/g Muscle): 0.03 %ID/g | tissue uptake at 48 h ([2]; female, % iD/g Muscle): 0.01 %ID/g | tissue uptake at 1 h ([2]; female, % iD/g Pancreas): 0.28 %ID/g | tissue uptake at 6 h ([2]; female, % iD/g Pancreas): 0.09 %ID/g | tissue uptake at 48 h ([2]; female, % iD/g Pancreas): 0.05 %ID/g | tissue uptake at 1 h ([2]; female, % iD/g Spleen): 1.55 %ID/g | tissue uptake at 6 h ([2]; female, % iD/g Spleen): 1.38 %ID/g | tissue uptake at 48 h ([2]; female, % iD/g Spleen): 1.32 %ID/g | tissue uptake at 1 h ([2]; female, % iD/g Stomach): 0.94 %ID/g | tissue uptake at 6 h ([2]; female, % iD/g Stomach): 0.25 %ID/g | tissue uptake at 48 h ([2]; female, % iD/g Stomach): 0.07 %ID/g | tissue uptake at 1 h ([2]; female, % iD/g Tumor): 8.42 %ID/g | tissue uptake at 6 h ([2]; female, % iD/g Tumor): 6.88 %ID/g | tissue uptake at 48 h ([2]; female, % iD/g Tumor): 5.44 %ID/g | Calculated tumor retention 6 h compared to the 1 h-value [4]: 82% | Calculated tumor retention 48 h compared to the 1 h-value [4]: 65%
